Source: PubChem BioAssay (NCI)
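The compound was tested at five concentrations on cells cultured in 96-well plates, with a 48-hour exposure period. At the GI50, growth is halved. TGI marks complete inhibition of growth.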

Columns and labels:
Experiment in all cases: NCI tumour cell line growth inhibition, 48 h
HCT-15 colon = test system: HCT-15 colon
CAKI-1 renal = test system: CAKI-1 renal
CCRF-CEM leukemia = test system: CCRF-CEM leukemia
UO-31 renal = test system: UO-31 renal
NCI-H522 lung = test system: NCI-H522 lung
LOX IMVI melanoma = test system: LOX IMVI melanoma
IGROV1 ovarian = test system: IGROV1 ovarian
HL-60(TB) leukemia = test system: HL-60(TB) leukemia
T-47D breast = test system: T-47D breast
BT-549 breast = test system: BT-549 breast

| SMILES | GI50 (HCT-15 colon) [µM] | TGI (HCT-15 colon) [µM] | GI50 (CAKI-1 renal) [µM] | TGI (CAKI-1 renal) [µM] | GI50 (CCRF-CEM leukemia) [µM] | TGI (CCRF-CEM leukemia) [µM] | GI50 (UO-31 renal) [µM] | TGI (UO-31 renal) [µM] | GI50 (NCI-H522 lung) [µM] | TGI (NCI-H522 lung) [µM] | GI50 (LOX IMVI melanoma) [µM] | TGI (LOX IMVI melanoma) [µM] | GI50 (IGROV1 ovarian) [µM] | TGI (IGROV1 ovarian) [µM] | GI50 (HL-60(TB) leukemia) [µM] | TGI (HL-60(TB) leukemia) [µM] | TGI (T-47D breast) [µM] | TGI (BT-549 breast) [µM] | GI50 (T-47D breast) [µM] | GI50 (BT-549 breast) [µM] |
| --- | --- | --- | --- | --- | --- | --- | --- | --- | --- | --- | --- | --- | --- | --- | --- | --- | --- | --- | --- | --- |
| CC(=O)[CH-]C(=O)c1ccccc1.CC(=O)[CH-]C(=O)c1ccccc1.[O-]c1ccc2c(c1)OCO2.[O-]c1ccc2c(c1)OCO2.[Ti+4] | 34.4 | > 100 | 29.5 | > 100 | 3.66 | 30.3 | 35.9 | 94.3 | 16.5 | 42.1 | 18.2 | 55 | 34.5 | > 100 | 10.7 | 48 | – | – | – | – |
| C[C@]12C[C@H](O)[C@H]3[C@@H](CCC4=CC(=O)CC[C@@]43C)[C@@H]1CC[C@@H]2c1csc(-c2ccccc2)n1 | – | > 100 | – | > 100 | – | – | – | > 46.2 | – | > 100 | – | > 100 | – | > 100 | – | – | > 100 | > 100 | – | – |
| Nc1ccc(/C=C/c2ccc3cccnc3c2)cc1 | – | > 100 | – | > 100 | – | > 100 | – | > 100 | – | – | – | > 100 | – | – | – | > 100 | > 100 | – | – | – |
| O=c1c2cc3ccccc3n2c(=O)c2cc3ccccc3n12 | – | > 100 | – | > 100 | – | > 100 | – | > 100 | – | > 100 | – | > 100 | – | – | – | > 100 | – | – | – | – |
| COC(=O)CC[C@]12C[C@]13CC[C@]1(C)C4C(C)C[C@]5(CC(C)C(=O)O5)OC4CC1(C)C3CCC2C(C)(C)O (some centres not stated) | – | > 100 | – | – | – | – | – | > 100 | – | > 100 | – | > 100 | – | > 100 | – | 66.1 | – | – | – | – |
| N#Cc1cc(S(=O)(=O)Nc2nc3ccccc3o2)c(SCc2ccccc2)cc1Cl | 24.6 | 60.1 | 24.7 | 65.2 | – | – | 20.4 | 39.2 | 17 | 40.4 | 18.7 | 36.5 | 22 | 54.8 | – | – | 80.9 | 41.3 | 23.7 | 20.5 |
| C=C1C(OC(C)=O)CC(OC(C)=O)C2(C)C(OC(C)=O)C(OC(C)=O)C3=C(C)C(OC(=O)/C=C/c4ccccc4)CC(C(OC(C)=O)C12)C3(C)C (configuration not stated) | – | > 100 | – | > 100 | – | > 100 | – | > 100 | – | > 100 | – | > 100 | – | > 100 | – | > 100 | – | – | – | – |
| O=C1NC2C(O)CCCCC2C12CCCCC2 (configuration not stated) | – | > 100 | – | > 100 | – | – | – | > 100 | – | > 100 | – | > 100 | – | > 100 | – | > 100 | – | – | – | – |
| COC(=O)N/N=C(\C)CC(=O)Nc1ccc(Cl)cc1 | – | – | – | – | – | > 100 | – | > 100 | – | > 100 | – | > 100 | – | > 100 | – | > 100 | – | – | – | – |
| COc1cc(/C=N/N=C(\N)NO)c([N+](=O)[O-])cc1OC | – | > 100 | – | 76.2 | – | > 100 | – | > 100 | – | 34.4 | – | 83.5 | – | > 100 | – | 56 | – | – | – | – |
| C1=CCCC=CCC1.C[PH+](C)C.C[PH+](C)C.C[PH+](C)C.[Cl-].[Ir] | > 100 | > 100 | – | – | 19.4 | 71.7 | > 100 | > 100 | 26.4 | 60.1 | 31.4 | > 100 | 36.3 | > 100 | 28.7 | 75.3 | – | – | – | – |
| C[CH2][Sn]([CH2]C)([O]C(=O)c1ccc(F)cc1)[O]C(=O)c1ccc(F)cc1 | 25.7 | > 63 | 4.05 | 16.3 | 8.75 | 31.4 | 32.8 | > 56.3 | 1.71 | 4.48 | 18 | 37.9 | > 80.5 | > 100 | 60.5 | > 100 | – | – | – | – |
| COc1c(N2CCN(CN3C(=O)C(=Nc4ccc(S(=O)(=O)Nc5ncccn5)cc4)c4cc(Cl)ccc43)C(C)C2)c(F)cc2c(=O)c(C(=O)O)cn(C3CC3)c12 (configuration not stated) | 45.4 | > 50 | 14 | 42.2 | – | – | 37.5 | > 50 | > 50 | > 50 | 12.8 | > 50 | 15.8 | > 50 | 16.6 | > 50 | – | > 50 | – | 20.4 |
| COc1ccc2c(c1)CN1CCc3c(cc(OC)c(OC)c3OC)C1C2 (configuration not stated) | – | > 100 | – | > 100 | – | > 100 | – | > 100 | – | > 100 | – | – | – | > 100 | – | > 100 | – | – | – | – |
| COc1ccc2[nH]c(C(=O)OCc3ccc4c(Cl)cc(Cl)c(O)c4n3)cc2c1 | 0.698 | 2.44 | 0.768 | 2.13 | 0.312 | 2.08 | 0.378 | 1.96 | 1.19 | 2.99 | 0.907 | 2.22 | 0.601 | 1.95 | 1.5 | 3.84 | – | 2.56 | – | 1.21 |
| CC[PH+](CC)CC.[Cl][Au] | 1.31 | 3.17 | 1.18 | 2.64 | 0.216 | 1.33 | 6.21 | 10.7 | 0.122 | 0.31 | 1.4 | 2.91 | 2.64 | 7.15 | < 0.0469 | 0.278 | – | – | – | – |
| COc1cc2cnc3c4cc(OCc5ccccc5)ccc4ccc3c2cc1OC | – | > 100 | – | > 100 | – | 17.3 | – | > 100 | – | > 100 | – | > 100 | – | > 100 | – | 9.27 | – | – | – | – |
| CO[C@@]1(c2ccccc2)O[C@H]2OCCC2[C@H]1c1ccc(Cl)cc1 (some centres not stated) | – | > 100 | – | > 100 | – | – | – | 90.4 | – | 67.9 | – | 77.4 | – | > 100 | – | – | – | – | – | – |
| CC1=CCCC2C(C=O)(C1)CC(C)C2(CO)CC/C(=C/CO)CO (configuration not stated) | – | > 100 | – | > 100 | – | > 100 | – | 82.8 | – | > 100 | – | > 100 | – | > 100 | – | – | – | – | – | – |
